EP2736485B1, “AQUEOUS SOLUTIONS OF […], IN […] SOLUTIONS” (Universität Regensburg, priority 2011, dated 2013)

Experiment: Solubilisation of active ingredient in aqueous surfactant solution (stirring overnight at room temperature)
Format: physicochemical
Settings: Aqua bidest. ad 1,00 ml
Protocol: Das einfache grundlegende System besteht aus einem erfindungsgemäß geeigneten Tensid, einem lipophilen Wirkstoff und Wasser. Durch Lösen der Bestandteile mittels Rühren entsteht ein vorzugsweise klares, kolloidales System, in welchem die lipophile Substanz in Mizellen verkapselt gelöst ist.
Wirkstoff und Tensid wurden eingewogen und um 1ml Aqua bidest. ergänzt. Dieser Ansatz wurde über Nacht durch Rühren bei Raumtemperatur (21°C) gelöst. […] Die Messungen wurden mittels Photonenkorellationsspektrometrie durchgeführt.
Die Herstellung erfolgte analog wie bereits unter Beispiel 1 beschrieben.

CCCC1O[C@@H]2C[C@H]3[C@@H]4CCC5=CC(=O)C=C[C@]5(C)[C@H]4[C@@H](O)C[C@]3(C)[C@]2(C(=O)CO)O1 (stereo partly shown) [Budesonid]
Budesonid in Lösung (Solutol® HS15 10,00 mg): 0,09 mg | Budesonid in Lösung (Solutol® HS15 50,00 mg): 0,41 mg | Budesonid in Lösung (Solutol® HS15 100,00 mg): 0,77 mg | Budesonid in Lösung (Solutol® HS15 200,00 mg): 1,32 mg
